# Assay results published in the supplement of paper PMC10307832.
# Tests used:
# Test in all cases: relative viability (nuclei count vs DMSO), 5 days (fraction); higher = more cells survive
# Seliciclib + Pemetrexed = compound: CC[C@H](CO)Nc1nc(NCc2ccccc2)c2ncn(C(C)C)c2n1 [Seliciclib] + Nc1nc2[nH]cc(CCc3ccc(C(=O)N[C@@H](CCC(=O)O)C(=O)O)cc3)c2c(=O)[nH]1 [Pemetrexed] (partner 0.2 µM)
# Outline: (§1)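 Values are medians from duplicate plates. Each reflects relative viability, defined as the nuclei count of treated wells over that of vehicle wells. Lung cancer cell lines in 1536-well plates were pin-tool dosed one day after seeding with one drug alone or with a fixed anchor-drug dose plus five library-drug doses (not always all listed) in √10 steps, then fixed, stained and imaged at 4× after 5 days.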
# Seliciclib + OSI-027 = compound: CC[C@H](CO)Nc1nc(NCc2ccccc2)c2ncn(C(C)C)c2n1 [Seliciclib] + COc1cccc2cc(-c3nc([C@H]4CC[C@H](C(=O)O)CC4)n4ncnc(N)c34)[nH]c12 [OSI-027] (partner 0.5 µM)
# Outline: as §1
# Seliciclib + Foretinib = compound: CC[C@H](CO)Nc1nc(NCc2ccccc2)c2ncn(C(C)C)c2n1 [Seliciclib] + COc1cc2c(Oc3ccc(NC(=O)C4(C(=O)Nc5ccc(F)cc5)CC4)cc3F)ccnc2cc1OCCCN1CCOCC1 [Foretinib] (partner 0.25 µM)
# Outline: as §1
# Seliciclib + AZD7762 = compound: CC[C@H](CO)Nc1nc(NCc2ccccc2)c2ncn(C(C)C)c2n1 [Seliciclib] + NC(=O)Nc1cc(-c2cccc(F)c2)sc1C(=O)N[C@H]1CCCNC1 [AZD7762] (partner 0.2 µM)
# Outline: as §1
Cell Line,relative viability (Seliciclib + Pemetrexed; first compound 0.08 µM),relative viability (Seliciclib + Pemetrexed; first compound 0.253 µM),relative viability (Seliciclib + Pemetrexed; first compound 0.8 µM),relative viability (Seliciclib + Pemetrexed; first compound 2.53 µM),relative viability (Seliciclib + Pemetrexed; first compound 8 µM),relative viability (Seliciclib + OSI-027; first compound 0.08 µM),relative viability (Seliciclib + OSI-027; first compound 0.253 µM),relative viability (Seliciclib + OSI-027; first compound 0.8 µM),relative viability (Seliciclib + OSI-027; first compound 2.53 µM),relative viability (Seliciclib + OSI-027; first compound 8 µM),relative viability (Seliciclib + Foretinib; first compound 0.08 µM),relative viability (Seliciclib + Foretinib; first compound 0.253 µM),relative viability (Seliciclib + Foretinib; first compound 0.8 µM),relative viability (Seliciclib + Foretinib; first compound 2.53 µM),relative viability (Seliciclib + Foretinib; first compound 8 µM),relative viability (Seliciclib + AZD7762; first compound 0.08 µM),relative viability (Seliciclib + AZD7762; first compound 0.253 µM),relative viability (Seliciclib + AZD7762; first compound 0.8 µM),relative viability (Seliciclib + AZD7762; first compound 2.53 µM),relative viability (Seliciclib + AZD7762; first compound 8 µM)
COR-L 105,0.98,1.09,1.21,1.09,1.01,0.722,0.622,0.754,0.56,0.646,1.11,0.8,1.02,1.18,1.02,,,,,
LK-2,0.25,0.274,0.266,0.166,0.195,0.225,0.203,0.191,0.175,0.194,1.13,1.08,0.776,0.85,0.977,0.414,0.379,0.584,0.187,0.293
NCI-H727,,,,,,0.792,0.687,0.465,0.338,0.636,0.905,0.917,0.716,0.661,0.896,0.611,0.731,0.567,0.522,0.787
RERF-LC-KJ,0.474,0.54,0.488,0.471,0.441,0.58,0.582,0.555,0.407,0.508,0.828,0.748,0.83,0.922,0.803,0.861,0.894,0.992,0.837,0.789
NCI-H2023,0.261,0.276,0.229,0.181,0.222,0.418,0.304,0.396,0.188,0.323,0.752,0.664,0.865,0.909,0.833,,,,,
NCI-H322M,0.615,0.716,0.564,0.636,0.619,0.561,0.482,0.516,0.348,0.43,1,1.23,0.907,0.865,0.752,0.594,0.646,0.637,0.692,0.907
NCI-H1666,0.918,0.959,0.824,0.821,0.815,0.817,0.899,0.939,0.622,0.734,0.97,1.04,0.987,1,0.662,0.862,0.959,0.936,0.793,0.818
SW 900,0.515,0.501,0.484,0.451,0.406,0.59,0.396,0.62,0.45,0.397,0.802,0.995,0.784,0.765,0.891,0.537,0.616,0.704,0.647,0.559
NCI-H2087,0.635,0.591,0.673,0.652,0.639,0.617,0.533,0.497,0.273,0.432,1.16,1.05,1.04,1.07,0.816,1.28,1.46,1.33,1.24,1.11
LU99A,0.172,0.211,0.204,0.197,0.188,0.286,0.265,0.323,0.221,0.323,0.83,0.532,0.825,0.717,0.517,0.338,0.321,0.491,0.317,0.49
HCC-366,0.153,0.327,0.212,0.295,0.241,0.978,0.43,0.825,0.513,0.625,0.917,0.97,0.786,0.93,0.762,0.291,0.274,0.388,0.409,0.481
EKVX,0.368,0.37,0.354,0.379,0.472,,0.781,0.661,0.565,0.537,,0.887,0.533,0.756,0.77,0.767,0.767,0.791,0.642,0.711
NCI-H522,1.11,0.917,1.18,1.01,0.914,0.818,0.63,0.685,0.623,0.644,,,,,,0.862,0.717,0.863,0.952,0.873
NCI-H1755,0.385,0.386,0.431,0.419,0.467,0.633,0.714,0.738,0.515,0.691,0.94,0.891,1.02,0.882,0.915,0.447,0.408,0.481,0.488,0.617
NCI-H647,0.2,0.151,0.174,0.179,0.196,0.616,,0.652,0.552,0.534,1.16,,1.13,1.19,1.09,0.676,0.554,0.496,0.554,0.48
LC-2-ad,0.264,0.25,0.285,0.279,0.248,0.902,0.901,0.827,0.453,0.799,0.949,0.966,0.865,0.747,0.852,0.839,0.882,0.791,0.741,0.853
HCC-827,0.251,0.241,0.258,0.297,0.258,0.844,0.612,0.757,0.801,0.794,1.01,1.04,0.968,0.972,0.925,0.211,0.19,0.217,0.209,0.172
HCC-78,0.852,0.89,0.914,0.958,0.88,0.411,0.426,0.358,0.34,0.326,0.535,0.574,0.445,0.41,0.457,0.689,0.66,0.62,0.525,0.51
NCI-H2085,0.979,1.01,0.856,0.935,0.727,0.803,0.679,0.59,0.685,0.577,0.89,0.954,0.903,0.829,0.676,0.948,0.962,0.998,1.03,0.868
PC-14,0.125,0.147,0.166,0.143,0.122,0.844,0.736,0.749,0.494,0.709,0.884,0.971,0.902,0.997,0.843,0.358,0.35,0.358,0.354,0.331

Cell Line,relative viability (Seliciclib + Pemetrexed; first compound 0.08 µM),relative viability (Seliciclib + Pemetrexed; first compound 0.253 µM),relative viability (Seliciclib + Pemetrexed; first compound 0.8 µM),relative viability (Seliciclib + Pemetrexed; first compound 2.53 µM),relative viability (Seliciclib + Pemetrexed; first compound 8 µM),relative viability (Seliciclib + OSI-027; first compound 0.08 µM),relative viability (Seliciclib + OSI-027; first compound 0.253 µM),relative viability (Seliciclib + OSI-027; first compound 0.8 µM),relative viability (Seliciclib + OSI-027; first compound 2.53 µM),relative viability (Seliciclib + OSI-027; first compound 8 µM),relative viability (Seliciclib + Foretinib; first compound 0.08 µM),relative viability (Seliciclib + Foretinib; first compound 0.253 µM),relative viability (Seliciclib + Foretinib; first compound 0.8 µM),relative viability (Seliciclib + Foretinib; first compound 2.53 µM),relative viability (Seliciclib + Foretinib; first compound 8 µM),relative viability (Seliciclib + AZD7762; first compound 0.08 µM),relative viability (Seliciclib + AZD7762; first compound 0.253 µM),relative viability (Seliciclib + AZD7762; first compound 0.8 µM),relative viability (Seliciclib + AZD7762; first compound 2.53 µM),relative viability (Seliciclib + AZD7762; first compound 8 µM)
NCI-H358,0.17,0.178,0.167,0.159,0.169,0.79,0.501,0.652,0.58,0.448,0.684,0.597,0.752,0.665,0.457,0.55,0.577,0.235,0.462,0.434
HCC-44,0.631,0.676,0.684,0.617,0.645,0.488,0.451,0.508,0.302,0.508,,,,,,1.02,1.05,1.12,1.12,0.944
NCI-H2228,0.325,0.326,0.337,0.34,0.344,0.594,0.437,0.617,0.473,0.404,0.931,0.826,0.727,0.856,0.591,,,,,
ABC-1,,,,,,0.611,0.378,0.431,0.32,0.387,1.04,0.987,1.17,1.02,1.2,0.944,0.764,0.782,0.719,0.637
COR-L23,0.209,0.192,0.195,0.198,0.212,0.808,0.604,0.7,0.671,0.627,0.928,1.22,0.981,0.99,0.738,,,,,
NCI-H661,0.839,1.03,0.921,0.82,0.806,0.757,0.741,0.687,0.65,0.637,1.03,0.936,0.975,0.945,0.636,,,,,
UMC-11,0.741,0.753,0.789,0.78,0.594,0.537,0.503,0.48,0.153,0.422,1.05,0.87,1.01,0.939,0.784,,,,,
NCI-H1650,0.429,0.346,0.36,0.427,0.399,0.842,0.518,0.641,0.487,0.443,0.984,1.1,0.956,1.35,0.981,,,,,
EBC-1,,,,,,,,,,,0.124,0.103,0.105,0.125,0.108,,,,,
SK-LU-1,0.992,1.08,1.04,0.952,0.597,0.38,0.378,0.433,0.239,0.233,0.832,0.785,0.83,0.914,0.654,,,,,
NCI-H1792,0.795,0.694,0.82,,0.868,0.67,0.769,0.73,,0.64,,,,,,0.897,0.57,0.567,,0.736
SW 1573,0.875,0.723,0.886,0.791,0.731,0.606,0.491,0.728,0.598,0.466,0.879,1.01,0.946,0.65,0.739,,,,,
A549,,,,,,,,,,,0.919,0.985,0.895,0.966,0.775,,,,,
SK-MES-1,1,1.17,0.932,0.862,0.708,0.63,0.655,0.593,0.462,0.45,0.891,0.889,0.771,0.903,0.862,,,,,
NCI-H1703,,,,,,,,,,,0.352,0.362,0.323,0.298,0.342,0.132,0.147,0.135,0.126,0.111
NCI-H520,0.535,0.627,0.657,0.654,0.619,0.275,,0.324,0.277,0.228,0.759,,0.826,0.76,0.858,,,,,
NCI-H1648,0.767,0.922,0.963,0.675,0.591,0.273,0.313,0.281,0.251,0.259,,,,,,0.775,1.06,0.758,0.826,0.71
NCI-H1563,0.8,0.716,0.85,0.698,0.668,0.766,0.709,0.725,0.747,0.792,0.922,0.803,0.932,0.941,0.86,,,,,
NCI-H2009,1.08,1.17,1.03,0.981,1.02,0.704,0.778,0.739,0.407,0.495,1.21,1.24,1.22,1.18,1.27,,,,,
